Experimental data: ChEMBL document CHEMBL1138397, “New C25 carbamate rifamycin derivatives are resistant to inactivation by ADP-ribosyl transferases” (2007)
≈ marks a conversion by molar mass, not a printed value.

Legend:
[1] = tested on: Mycolicibacterium smegmatis; experiment: Antimicrobial activity against Arr-1 positive Mycobacterium smegmatis DSM 43756; type: functional
[2] = tested on: Mycolicibacterium smegmatis; experiment: Ratio of MIC for Arr-1 positive Mycobacterium smegmatis DSM 43756 to MIC for Arr-1 negative Mycobacterium smegmatis DSM 43756Kml; type: functional
Escherichia coli [3] = experiment: Ratio of MIC for Arr-2 positive Escherichia coli CGSC 5163 lpxC101 mutant bearing pCTV104 to MIC for Arr-2 negative Escherichia coli CGSC 5163 lpxC101 mutant bearing pCTV104P; type: functional
Escherichia coli [4] = experiment: Antimicrobial activity against Arr-2 positive Escherichia coli DH5-alpha bearing pCTF104; type: functional; settings: DH5alpha
Escherichia coli [5] = experiment: Antimicrobial activity against Arr-2 negative Escherichia coli CGSC 5163 lpxC101 mutant bearing pCTV104P; type: functional
[6] = tested on: Mycolicibacterium smegmatis; experiment: Antimicrobial activity against Arr-1 negative Mycobacterium smegmatis DSM 43756Kml; type: functional
Staphylococcus aureus [7] = experiment: Antimicrobial activity against rifampin-resistant Staphylococcus aureus ATCC 29213 rpoB (His481Tyr) mutant; type: functional
Escherichia coli [8] = experiment: Antimicrobial activity against Arr-2 negative Escherichia coli DH5alpha bearing pCTF104P; type: functional
Escherichia coli [9] = experiment: Antimicrobial activity against Arr-2 positive Escherichia coli CGSC 5163 lpxC101 mutant bearing pCTV104; type: functional
Staphylococcus aureus [10] = experiment: Antimicrobial activity against rifampin-sensitive Staphylococcus aureus ATCC 29213; type: functional
Escherichia coli [11] = experiment: Ratio of MIC for Arr-2 positive Escherichia coli DH5-alpha bearing pCTF104 to MIC for Arr-2 negative Escherichia coli DH5-alpha bearing pCTF104P; type: functional, DH5alpha

SMILES	MIC [1]	Ratio [2]	Ratio (Escherichia coli [3])	MIC (Escherichia coli [4])	MIC (Escherichia coli [5])	MIC [6]	MIC (Staphylococcus aureus [7])	MIC (Escherichia coli [8])	MIC (Escherichia coli [9])	MIC (Staphylococcus aureus [10])	Ratio (Escherichia coli [11])
CO[C@H]1/C=C/O[C@@]2(C)Oc3c(C)c(O)c4c(c3C2=O)C(=O)C(N2CCOCC2)=C(NC(=O)/C(C)=C\C=C\[C@H](C)[C@H](O)[C@@H](C)[C@@H](O)[C@@H](C)[C@H](OC(=O)NCCN(C)C)[C@@H]1C)C4=O	0.5 µg/mL (≈ 0.586 µM)	4	1	8 µg/mL (≈ 9.38 µM)	0.24 µg/mL (≈ 0.281 µM)	0.12 µg/mL (≈ 0.141 µM)	> 63 µg/mL	4 µg/mL (≈ 4.69 µM)	0.24 µg/mL (≈ 0.281 µM)	0.006 µg/mL (≈ 0.00703 µM)	2
CO[C@H]1/C=C/O[C@@]2(C)Oc3c(C)c(O)c4c(c3C2=O)C(=O)C(N2CCOCC2)=C(NC(=O)/C(C)=C\C=C\[C@H](C)[C@H](O)[C@@H](C)[C@@H](O)[C@@H](C)[C@H](OC(=O)N2CCOCC2)[C@@H]1C)C4=O	2 µg/mL (≈ 2.35 µM)	2	1	63 µg/mL (≈ 73.9 µM)	1 µg/mL (≈ 1.17 µM)	1 µg/mL (≈ 1.17 µM)	–	31 µg/mL (≈ 36.4 µM)	1 µg/mL (≈ 1.17 µM)	0.03 µg/mL (≈ 0.0352 µM)	2
CO[C@H]1/C=C/O[C@@]2(C)Oc3c(C)c(O)c4c(c3C2=O)C(=O)C(N2CCOCC2)=C(NC(=O)/C(C)=C\C=C\[C@H](C)[C@H](O)[C@@H](C)[C@@H](O)[C@@H](C)[C@H](OC(=O)NCc2cccc(Cl)c2)[C@@H]1C)C4=O	0.12 µg/mL (≈ 0.132 µM)	>4	2	> 250 µg/mL	0.24 µg/mL (≈ 0.265 µM)	≤ 0.03 µg/mL	> 63 µg/mL	> 250 µg/mL	0.5 µg/mL (≈ 0.552 µM)	0.008 µg/mL (≈ 0.00883 µM)	–
CO[C@H]1/C=C/O[C@@]2(C)Oc3c(C)c(O)c4c(c3C2=O)C(=O)C(N2CCOCC2)=C(NC(=O)/C(C)=C\C=C\[C@H](C)[C@H](O)[C@@H](C)[C@@H](O)[C@@H](C)[C@H](OC(=O)NCc2ccc(N(C)C)cc2)[C@@H]1C)C4=O	0.06 µg/mL (≈ 0.0656 µM)	1	16	> 250 µg/mL	1 µg/mL (≈ 1.09 µM)	0.06 µg/mL (≈ 0.0656 µM)	> 63 µg/mL	63 µg/mL (≈ 68.8 µM)	16 µg/mL (≈ 17.5 µM)	0.06 µg/mL (≈ 0.0656 µM)	>4
COc1ccccc1-c1cc(CNC(=O)O[C@H]2[C@H](C)[C@H](O)[C@H](C)[C@@H](O)[C@@H](C)/C=C/C=C(/C)C(=O)NC3=C(N4CCOCC4)C(=O)c4c(c(O)c(C)c5c4C(=O)[C@@](C)(O/C=C/[C@H](OC)[C@H]2C)O5)C3=O)on1	0.12 µg/mL (≈ 0.124 µM)	1	2	> 250 µg/mL	1 µg/mL (≈ 1.03 µM)	0.12 µg/mL (≈ 0.124 µM)	–	> 250 µg/mL	2 µg/mL (≈ 2.06 µM)	0.06 µg/mL (≈ 0.0619 µM)	–
CO[C@H]1/C=C/O[C@@]2(C)Oc3c(C)c(O)c4c(c3C2=O)C(=O)C(N2CCOCC2)=C(NC(=O)/C(C)=C\C=C\[C@H](C)[C@H](O)[C@@H](C)[C@@H](O)[C@@H](C)[C@H](OC(=O)NCc2ccc(C(F)(F)F)cc2)[C@@H]1C)C4=O	0.12 µg/mL (≈ 0.128 µM)	>4	2	> 250 µg/mL	0.5 µg/mL (≈ 0.532 µM)	≤ 0.03 µg/mL	–	> 250 µg/mL	1 µg/mL (≈ 1.06 µM)	0.03 µg/mL (≈ 0.0319 µM)	–
CO[C@H]1/C=C/O[C@@]2(C)Oc3c(C)c(O)c4c(c3C2=O)C(=O)C(N2CCOCC2)=C(NC(=O)/C(C)=C\C=C\[C@H](C)[C@H](O)[C@@H](C)[C@@H](O)[C@@H](C)[C@H](OC(=O)NCc2cc(-c3ccccn3)no2)[C@@H]1C)C4=O	0.5 µg/mL (≈ 0.532 µM)	1	–	4 µg/mL (≈ 4.26 µM)	2 µg/mL (≈ 2.13 µM)	0.5 µg/mL (≈ 0.532 µM)	> 63 µg/mL	4 µg/mL (≈ 4.26 µM)	2 µg/mL (≈ 2.13 µM)	0.008 µg/mL (≈ 0.00851 µM)	1
CO[C@H]1/C=C/O[C@@]2(C)Oc3c(C)c(O)c4c(c3C2=O)C(=O)C(N2CCOCC2)=C(NC(=O)/C(C)=C\C=C\[C@H](C)[C@H](O)[C@@H](C)[C@@H](O)[C@@H](C)[C@H](OC(=O)N2CCC(NCc3ccccc3)CC2)[C@@H]1C)C4=O	0.12 µg/mL (≈ 0.126 µM)	1	1	16 µg/mL (≈ 16.8 µM)	0.24 µg/mL (≈ 0.251 µM)	0.12 µg/mL (≈ 0.126 µM)	> 63 µg/mL	8 µg/mL (≈ 8.38 µM)	0.24 µg/mL (≈ 0.251 µM)	0.03 µg/mL (≈ 0.0314 µM)	2
C=CCNC(=O)O[C@H]1[C@H](C)[C@H](O)[C@H](C)[C@@H](O)[C@@H](C)/C=C/C=C(/C)C(=O)NC2=C(N3CCOCC3)C(=O)c3c(c(O)c(C)c4c3C(=O)[C@@](C)(O/C=C/[C@H](OC)[C@H]1C)O4)C2=O	2 µg/mL (≈ 2.43 µM)	>32	16	> 250 µg/mL	0.24 µg/mL (≈ 0.292 µM)	0.06 µg/mL (≈ 0.073 µM)	–	8 µg/mL (≈ 9.73 µM)	4 µg/mL (≈ 4.87 µM)	0.004 µg/mL (≈ 0.00487 µM)	>32
COc1ccc(CNC(=O)O[C@H]2[C@H](C)[C@H](O)[C@H](C)[C@@H](O)[C@@H](C)/C=C/C=C(/C)C(=O)NC3=C(N4CCOCC4)C(=O)c4c(c(O)c(C)c5c4C(=O)[C@@](C)(O/C=C/[C@H](OC)[C@H]2C)O5)C3=O)cc1	0.06 µg/mL (≈ 0.0665 µM)	2	1	> 250 µg/mL	0.5 µg/mL (≈ 0.554 µM)	0.03 µg/mL (≈ 0.0333 µM)	4 µg/mL (≈ 4.43 µM)	16 µg/mL (≈ 17.7 µM)	0.5 µg/mL (≈ 0.554 µM)	0.016 µg/mL (≈ 0.0177 µM)	>16
CO[C@H]1/C=C/O[C@@]2(C)Oc3c(C)c(O)c4c(c3C2=O)C(=O)C(N2CCOCC2)=C(NC(=O)/C(C)=C\C=C\[C@H](C)[C@H](O)[C@@H](C)[C@@H](O)[C@@H](C)[C@H](OC(=O)NCCO)[C@@H]1C)C4=O	8 µg/mL (≈ 9.69 µM)	4	16	> 250 µg/mL	0.5 µg/mL (≈ 0.605 µM)	2 µg/mL (≈ 2.42 µM)	16 µg/mL (≈ 19.4 µM)	8 µg/mL (≈ 9.69 µM)	8 µg/mL (≈ 9.69 µM)	0.016 µg/mL (≈ 0.0194 µM)	>32
CNC(=O)O[C@H]1[C@H](C)[C@H](O)[C@H](C)[C@@H](O)[C@@H](C)/C=C/C=C(/C)C(=O)NC2=C(N3CCOCC3)C(=O)c3c(c(O)c(C)c4c3C(=O)[C@@](C)(O/C=C/[C@H](OC)[C@H]1C)O4)C2=O	4 µg/mL (≈ 5.03 µM)	8	32	> 250 µg/mL	0.5 µg/mL (≈ 0.628 µM)	0.5 µg/mL (≈ 0.628 µM)	4 µg/mL (≈ 5.03 µM)	8 µg/mL (≈ 10.1 µM)	16 µg/mL (≈ 20.1 µM)	0.004 µg/mL (≈ 0.00503 µM)	>32
CO[C@H]1/C=C/O[C@@]2(C)Oc3c(C)c(O)c4c(O)c(c(/C=N/N5CCN(C)CC5)c(O)c4c3C2=O)NC(=O)/C(C)=C\C=C\[C@H](C)[C@H](O)[C@@H](C)[C@@H](O)[C@@H](C)[C@H](OC(C)=O)[C@@H]1C [RIFAMPIN]	32 µg/mL (≈ 38.9 µM)	64	32	> 250 µg/mL	0.24 µg/mL (≈ 0.292 µM)	0.5 µg/mL (≈ 0.608 µM)	> 63 µg/mL	8 µg/mL (≈ 9.72 µM)	8 µg/mL (≈ 9.72 µM)	0.008 µg/mL (≈ 0.00972 µM)	>32
